Test results taken from US6380195B1, “Method of treating heart failure with endothelin antagonists” (Banyu Pharmaceutical Co., Ltd., priority 1996, dated 2002).
Entries after “also recorded” stand apart in the source; their conditions may differ. Marks after values point to notes of the source that are not given here.

How the values were obtained:
[1] = system: conscious pigs with heart failure; assay: Hemodynamic study in conscious pigs with heart failure (serial myocardial infarctions plus intermittent tachycardic pacing); type: in vivo, pig; details: for LV End-Diastolic Diameter, change from baseline / LV End-Systolic Diameter, change from baseline / LV Fractional Shortening, change from baseline / Vcf, change from baseline: n = 3; for Cardiac Index, change from baseline / Heart Rate, change from baseline / LV dP/dt, change from baseline / Left Atrial Pressure, change from baseline / Mean Arterial Pressure, change from baseline / Total Peripheral Resistance, change from baseline: n = 4
Description: Five farm pigs of either of sex and weighing 34.5±2.5 kg were sedated with ketamine hydrochloride (25 mg/kg, i.m.) and xylazine (6 mg/kg, i.m.). After tracheal intubation, general anesthesia was maintained with isoflurane (1.5-2.0 vol % in oxygen). Using sterile surgical technique, a left thoracotomy was performed at the fifth intercostal space. Catheters made of Tygon tubing (Norton Performance Plastics Co., Akron, Ohio) were implanted in the descending aorta, left and right atria for measurement of pressures. A solid-state miniature pressure gauge (Konigsberg Instruments Inc., Pasadena, Calif.) was implanted in the left ventricular (LV) chamber to obtain LV pressure and the rate of change of LV pressure (LV dP/dt). A flow probe (Transonic System Inc., Ithaca, N.Y.) was placed around the main pulmonary artery for measurement of blood flow. One pair of piezoelectric ultrasonic dimension crystals were implanted on opposing anterior and posterior endocardial regions of the LV to measure the short-axis internal diameter. Proper alignment of the endocardial crystals was achieved during surgical implantation by positioning the crystals so as to obtain a signal with the greatest amplitude and shortest transit time. A pacing lead (model 5069, Medtronic Inc., Minneapolis, Minn.) was attached to the right ventricular free wall, and stainless steel pacing leads were attached to the left atrial appendage. The left circumflex coronary artery was isolated and two hydraulic occluders, made of Tygon tubing, were implanted proximally and distally to the first obtuse marginal branch. The wires and catheters were externalized between the scapulae, the incision was closed in layers, and air was evacuated from the chest cavity.
Hemodynamic recordings were made using a data tape recorder (RD-130TE, TEAC, Montebello, Calif.) and a multiple-channel oscillograph (MT95K2, Astro-Med, West Warwick, R.I.). Aortic and left atrial pressures were measured using strain gauge manometers (Statham Instruments, Oxnard, Calif.), which were calibrated in vitro using a mercury manometer, connected to the fluid-filled catheters. The solid-state LV pressure gauge was cross-calibrated with aortic and left atrial pressure measurements. LV dP/dt was obtained by electronically differentiating the LV pressure signal. Blood flow was measured using a volume flow meter (T208, Transonic System Inc., Ithaca, N.Y.). Mean arterial pressure, left atrial pressures, and pulmonary blood flow (cardiac output) were measured using an amplifier filter. Stroke volume was calculated as the quotient of cardiac output and heart rate. Cardiac output was normalized by body weight to yield cardiac index. LV dimension was measured with an ultrasonic transit-time dimension gauge (Model 203, Triton Technology Inc., San Diego, Calif.). Total peripheral resistance was calculated as the quotient of mean arterial pressure and cardiac output. LV short-axis end-diastolic dimension (EDD) was measured at the beginning of the upstroke of the LV dP/dt signal. LV end-systolic dimension (ESD) was measured at the time of maximum negative dP/dt. The percent shortening of LV internal diameter was calculated as (EDD-ESD)/EDD*100. LV mean velocity of circumferential fiber shortening (Vcf) was calculated from the dimension measurements using the following formula:(EDD-ESD)/EDD/Ejection time (sec^−1). Ejection time was measured as the interval between maximum and minimum LV dP/dt. A cardiotachometer triggered by the LV pressure pulse provided instantaneous and continuous records of heart rate.
Experiments were initiated 10-14 days after surgery, when the pigs were fully recovered from surgery. During the post-operative period, the pigs were introduced to a sling for training. Heart failure was produced by progressive myocardial ischemia induced by two coronary artery occlusions followed by intermittent ventricular pacing.

[2] = system: ET receptor; assay: Endothelin-1 (ET-1) challenge before and after Compound 1 in conscious pigs with heart failure; type: in vivo, pig
Description: Hemodynamic experiments were performed after 2 cycles of tachycardic pacing in the presence of myocardial ischemia injury, after the animal had achieved a stable state of heart failure. During the experiments, the pigs were conscious and quietly restrained in a sling. The test compound is dissolved in saturated NaHCO3 (10% by Vol) and 0.9% saline (90% by Vol) at a concentration of 2 mg/ml, was studied in four conscious pigs with heart failure. A dose of 0.5 mg/kg was injected intravenously over a period of 2 minutes, and hemodynamics were continuously recorded before and 90 minutes following injection of the test compound in all 4 pigs. In two of these pigs, recording continued until 3 hours following injection of the test compound. The vehicle was tested on separate days. The effects of 0.1 to 0.5 μg/kg cumulative bolus doses in 0.1 μg/kg steps of endothelin-1 (Peptide Institute, Inc., Osaka, Japan) were also examined on separate days before and 90 minutes after injection of the test compound in three pigs during development of heart failure to characterize the extent of endothelin block by the test compound. ET-1 was dissolved in 0.1 N NaHCO3 ([…]) and 0.9% saline (95% by Vol) at a concentration of 20 μg/ml.
Hemodynamic experiments were performed after 2 cycles of tachycardic pacing in the presence of myocardial ischemia injury, after the animal had achieved a stable state of heart failure. During the experiments, the pigs were conscious and quietly restrained in a sling. Compound 1, dissolved in saturated NaHCO3 (10% by Vol) and 0.9% saline (90% by Vol) at a concentration of 2 mg/ml, was studied in four conscious pigs with heart failure. A dose of 0.5 mg/kg was injected intravenously over a period of 2 minutes, and hemodynamics were continuously recorded before and 90 minutes following injection of Compound 1 in all 4 pigs. In two of these pigs, recording continued until 3 hour following injection of Compound 1. The vehicle was tested on separate days. The effects of 0.1 to 0.5 μg/kg cumulative bolus doses in 0.1 μg/kg steps of endothelin-1 (Peptide Institute, Inc., Osaka, Japan) were also examined on separate days before and 90 minutes after injection of Compound 1 in three pigs during development of heart failure to characterize the extent of ET block by Compound 1. ET-1was dissolved in 0.1 N NaHCO3 ([…]) and 0.9% saline (95% by Vol) at a concentration of 20 μg/ml. For comparative purpose, the effects of intravenous injection of Compound 2 (enalaprilat), at doses of 1 mg/kg and 4 mg/kg, were studied on different days in three of the pigs that were used to study […] and in one additional pig. Compound 2 was dissolved in 0.9% saline.

[3] = 0.5 mg/kg i.v., 60 minutes after administration
[4] = Compound 1 0.5 mg/kg i.v., 15 min
[5] = Compound 1 0.5 mg/kg i.v., 60 min
[6] = ET-1 cumulative i.v. bolus 0.1 to 0.5 μg/kg, without Compound 1

SMILES: C[C@H](N[C@@H](CCc1ccccc1)C(=O)O)C(=O)N1CCC[C@H]1C(=O)O [Compound 2, enalaprilat, reference compound]
- effect on total peripheral resistance (in words) ([1]; 1 mg/kg or 4 mg/kg i.v., throughout 90-minute observation period, not dose-dependent): significantly reduce the total peripheral resistance

SMILES: CCCCc1ccc2c(n1)[C@@H](c1ccc(OC)cc1CC(C)C(=O)O)[C@H](C(=O)O)[C@H]2c1ccc2c(c1)OCO2 (relative stereo) [Compound 1, (+)-(5S*, 6R*, 7R*)-2-butyl-6-carboxy-7-[2-(2-carboxypropyl)-4-methoxyphenyl]-5-(3,4-methylenedioxyphenyl)cyclopenteno[1,2-b]pyridine]
- Vcf, increase ([1]; 0.5 mg/kg i.v.): 12±2%
- effect on LV dP/dt (in words) ([1]; 0.5 mg/kg i.v.): not affected
- effect on LV end-diastolic diameter (in words) ([1]; 0.5 mg/kg i.v.): not affected
- effect on LV fraction shortening (in words) ([1]; 0.5 mg/kg i.v.): not affected
- effect on LV systolic diameter (in words) ([1]; 0.5 mg/kg i.v.): not affected
- effect on elevated vascular resistance of heart failure (in words) ([1]; 0.5 mg/kg i.v.): complete restoration of the elevated vascular resistance of heart failure back to pre-heart failure control values; also recorded: reduced the elevated vascular resistance
- effect on myocardial contractility (in words) ([1]; 0.5 mg/kg i.v.): did not affect myocardial contractility
- heart rate, increase (in words) ([1]; 0.5 mg/kg i.v.): not statistically significant
- left atrial pressure, decrease (in words) ([1]; 0.5 mg/kg i.v.): not statistically significant
- cardiac index, increase [1, 3]: 17±4%
- mean arterial pressure, decrease [1, 3]: 10±2%
- total peripheral resistance, decrease [1, 3]: 22±3%
- reduction in total peripheral resistance compared with Compound 2 (1 mg/kg or 4 mg/kg i.v.) ([1]; Compound 1 0.5 mg/kg i.v.): greater than that induced by either dose of Compound 2
- LV End-Diastolic Diameter, change from baseline [1, 4]: +0.1 ± 0.2 mm
- LV End-Systolic Diameter, change from baseline [1, 4]: −0.3 ± 0.3 mm
- LV Fractional Shortening, change from baseline [1, 4]: +0.6 ± 0.2%
- Vcf, change from baseline [1, 4]: 0.05 ± 0.01* sec^−1
- Cardiac Index, change from baseline [1, 4]: +14 ± 2 ml/min/kg
- Heart Rate, change from baseline [1, 4]: +5 ± 5 beat/min
- LV dP/dt, change from baseline [1, 4]: +25 ± 40 mmHg/sec
- Left Atrial Pressure, change from baseline [1, 4]: −4 ± 2 mmHg
- Mean Arterial Pressure, change from baseline [1, 4]: −10 ± 1 mmHg
- Total Peripheral Resistance, change from baseline [1, 4]: −0.25 ± 0.03 mmHg/ml/min/kg
- LV End-Diastolic Diameter, change from baseline [1, 5]: +0.2 ± 0.3 mm
- LV End-Systolic Diameter, change from baseline [1, 5]: −0.2 ± 0.3 mm
- LV Fractional Shortening, change from baseline [1, 5]: +0.7 ± 0.2%
- Vcf, change from baseline [1, 5]: +0.07 ± 0.02* sec^−1
- Cardiac Index, change from baseline [1, 5]: +13 ± 2 ml/min/kg
- Heart Rate, change from baseline [1, 5]: +7 ± 5 beat/min
- LV dP/dt, change from baseline [1, 5]: 56 ± 65 mmHg/sec
- Left Atrial Pressure, change from baseline [1, 5]: −2 ± 2 mmHg
- Mean Arterial Pressure, change from baseline [1, 5]: −8 ± 1 mmHg
- Total Peripheral Resistance, change from baseline [1, 5]: −0.24 ± 0.05 mmHg/ml/min/kg
- hemodynamic responses to ET-1 after administration of the antagonist ([2]; Compound 1 0.5 mg/kg i.v., ET-1 cumulative i.v. bolus, total dose 0.5 μg/kg): markedly attenuated

SMILES: CC[C@H](C)[C@H](NC(=O)[C@H](CC(=O)O)NC(=O)[C@H](CC(C)C)NC(=O)[C@H](Cc1c[nH]cn1)NC(=O)[C@@H]1CSSC[C@H](N)C(=O)N[C@@H](CO)C(=O)N[C@H]2CSSC[C@H](NC(=O)[C@H](CCC(=O)O)NC(=O)[C@H](CCCCN)NC(=O)[C@H](CC(=O)O)NC(=O)[C@H](CCSC)NC(=O)[C@H](CC(C)C)NC(=O)[C@H](CO)NC(=O)[C@H](CO)NC2=O)C(=O)N[C@@H](C(C)C)C(=O)N[C@@H](Cc2ccc(O)cc2)C(=O)N[C@@H](Cc2ccccc2)C(=O)N1)C(=O)N[C@H](C(=O)N[C@@H](Cc1c[nH]c2ccccc12)C(=O)O)[C@@H](C)CC [ET-1, endothelin-1]
- effect of ET-1 on heart rate [2, 6]: decreased, but not dose-dependently
- effect of ET-1 on mean arterial pressure [2, 6]: significant dose-dependent increases
- effect of ET-1 on mean left atrial pressure [2, 6]: significant dose-dependent increases
- effect of ET-1 on total peripheral resistance [2, 6]: significant dose-dependent increases
